From patent US20240116985A1, “STAPLED PEPTIDES AND METHODS THEREOF” (priority 2020, published 2024) come the findings set out here.

Usually IC50 stands for the concentration that gives 50% inhibition.

The experiment has as its target T1, full-length beta-Catenin (Uniprot ID P35222) (Homo sapiens, UniProt P35222).
T1 construct: 10 nM full-length beta-Catenin (Uniprot ID P35222)
T1 sequence (P35222 1-781): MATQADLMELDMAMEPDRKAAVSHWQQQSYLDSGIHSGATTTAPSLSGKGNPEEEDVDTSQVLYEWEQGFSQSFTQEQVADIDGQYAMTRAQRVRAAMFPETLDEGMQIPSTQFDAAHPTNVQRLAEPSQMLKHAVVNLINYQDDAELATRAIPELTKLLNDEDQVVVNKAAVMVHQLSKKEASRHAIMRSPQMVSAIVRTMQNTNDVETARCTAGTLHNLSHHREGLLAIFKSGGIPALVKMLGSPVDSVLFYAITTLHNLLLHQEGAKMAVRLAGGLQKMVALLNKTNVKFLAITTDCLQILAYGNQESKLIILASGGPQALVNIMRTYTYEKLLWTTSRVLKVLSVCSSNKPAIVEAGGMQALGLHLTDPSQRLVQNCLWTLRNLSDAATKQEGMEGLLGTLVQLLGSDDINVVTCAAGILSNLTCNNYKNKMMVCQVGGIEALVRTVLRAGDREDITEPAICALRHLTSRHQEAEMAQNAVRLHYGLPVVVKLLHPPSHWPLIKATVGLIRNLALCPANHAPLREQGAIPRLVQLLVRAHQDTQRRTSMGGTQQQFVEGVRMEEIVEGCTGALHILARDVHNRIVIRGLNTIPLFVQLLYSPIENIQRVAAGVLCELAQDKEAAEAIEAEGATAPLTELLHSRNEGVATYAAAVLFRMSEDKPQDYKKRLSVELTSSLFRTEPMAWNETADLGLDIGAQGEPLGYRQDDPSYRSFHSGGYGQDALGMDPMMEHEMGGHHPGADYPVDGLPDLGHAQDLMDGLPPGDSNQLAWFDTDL
The experiment is described as follows: Fluorescence polarization IC50 (beta-catenin / 5FAM-TCF4 10-53 competition). Format: binding. As to conditions: fluorescence polarization; read-out: beta-Catenin FP IC50.

As to `CC(=O)N1CCC[C@]12CC=CCCCC1(CCCC=CCCCOC(=O)N3CC[C@@](C(=O)N[C@@H](Cc4ccsc4)C(=O)N[C@@H](Cc4csc5ccccc45)C(=O)N[C@@H](CCC(N)=O)C(N)=O)(C3)NC(=O)[C@H](CC(C)C)NC(=O)[C@H](Cc3ccccc3)NC(=O)[C@H](C)NC(=O)[C@H](CCCN3CCOCC3)NC(=O)[C@H](CC(=O)O)NC(=O)[C@H](CC(=O)O)NC1=O)NC(=O)[C@H](CC(C)(C)C)NC(=O)[C@H](CC(=O)O)NC2=O` (stereo partly drawn) [I-1481, Ac-PL3-Asp-Npg-B5-Asp-Asp-MorphNva-Ala-Phe-Leu-PyrS2-3Thi-BztA-Gln-NH2], the IC50 is 0.007 µM.

Take `CC(=O)N1CCC[C@]12CC=CCCCC1(CCCC=CCCCOC(=O)N3CC[C@@](C(=O)N[C@@H](Cc4ccccc4)C(=O)N[C@@H](Cc4csc5ccccc45)C(=O)N[C@@H](CCC(N)=O)C(N)=O)(C3)NC(=O)[C@H](CC(C)C)NC(=O)[C@H](Cc3ccc(-c4cccnc4)cc3)NC(=O)[C@H](C)NC(=O)[C@H](C)NC(=O)[C@H](CC(=O)O)NC(=O)[C@H](CC(=O)O)NC1=O)NC(=O)[C@H](CC(C)(C)C)NC(=O)[C@H](CC(=O)O)NC2=O` (stereo partly drawn) [I-1490, Ac-PL3-Asp-Npg-B5-Asp-Asp-Ala-Ala-[3Py]4SF-Leu-PyrS2-Phe-BztA-Gln-NH2]: the IC50 is 0.226 µM.

As for `CC(=O)N1CCC[C@]12CC=CCCCC1(CCCC=CCCCCCC[C@@](C)(C(=O)N[C@@H](Cc3ccccc3Cl)C(=O)N[C@@H](Cc3csc4ccccc34)C(=O)N[C@H](CO)[C@@H](C)O)NC(=O)[C@H](CCO)NC(=O)[C@H](Cc3ccccc3)NC(=O)[C@H](C)NC(=O)[C@H](C)NC(=O)[C@H](CC(=O)O)NC(=O)[C@H](CC(=O)O)NC1=O)NC(=O)[C@H](CC(C)(C)C)NC(=O)[C@H](CC(=O)O)NC2=O` (stereo partly drawn) [I-1491, Ac-PL3-Asp-Npg-B5-Asp-Asp-Ala-Ala-Phe-Hse-S8-2C1F-BztA-Thro1], the half-inhibitory concentration (IC50) amounted to 0.034 µM.

Regarding `CC(=O)N1CCC[C@]12CC=CCCCC1(CCCC=CCCCOC(=O)N3CC[C@@](C(=O)N[C@@H](Cc4ccsc4)C(=O)N[C@@H](Cc4csc5ccccc45)C(=O)N[C@@H](Cc4c[nH]nn4)C(N)=O)(C3)NC(=O)[C@H](CC(C)C)NC(=O)[C@H](Cc3ccccc3)NC(=O)[C@H](C)NC(=O)[C@H](C)NC(=O)[C@H](CC(=O)O)NC(=O)[C@H](CC(=O)O)NC1=O)NC(=O)[C@H](CC(C)(C)C)NC(=O)[C@H](CC(=O)O)NC2=O` (stereo partly drawn) [I-1498, Ac-PL3-Asp-Npg-B5-Asp-Asp-Ala-Ala-Phe-Leu-PyrS2-3Thi-BztA-4TriA-NH2], the IC50 turned out to be 0.048 µM.

Consider `CC(=O)N1CCC[C@]12CC=CCCCC1(CCCC=CCCCOC(=O)N3CC[C@@](C(=O)N[C@@H](Cc4ccsc4)C(=O)N[C@@H](Cc4csc5ccccc45)C(=O)N[C@@H](CCC(N)=O)C(N)=O)(C3)NC(=O)[C@H](CC(C)C)NC(=O)[C@H](Cc3ccccc3)NC(=O)[C@H](CCCN3CCN(C)CC3)NC(=O)[C@H](C)NC(=O)[C@H](CC(=O)O)NC(=O)[C@H](CC(=O)O)NC1=O)NC(=O)[C@H](CC(C)(C)C)NC(=O)[C@H](CC(=O)O)NC2=O` (stereo partly drawn) [I-1503, Ac-PL3-Asp-Npg-B5-Asp-Asp-Ala-MePpzNva-Phe-Leu-PyrS2-3Thi-BztA-Gln-NH2], for which the concentration for half-maximal inhibition (IC50) was found to be 0.038 µM.

On to `CC(=O)N1CCC[C@]12CC=CCCCC1(CCCC=CCCCOC(=O)N3CC[C@@](C(=O)N[C@@H](Cc4ccsc4)C(=O)N[C@@H](Cc4csc5ccccc45)C(=O)N[C@@H](CCC(N)=O)C(N)=O)(C3)NC(=O)[C@H](CC(C)C)NC(=O)[C@H](Cc3ccccc3)NC(=O)[C@H](CCN3CCN(C)CC3)NC(=O)[C@H](C)NC(=O)[C@H](CC(=O)O)NC(=O)[C@H](CC(=O)O)NC1=O)NC(=O)[C@H](CC(C)(C)C)NC(=O)[C@H](CC(=O)O)NC2=O` (stereo partly drawn) [I-1506, Ac-PL3-Asp-Npg-B5-Asp-Asp-Ala-MePpzAbu-Phe-Leu-PyrS2-3Thi-BztA-Gln-NH2], for which the half-maximal inhibitory concentration (IC50) is 0.089 µM.

Consider `CC(=O)N1CCC[C@]12CC=CCCCC1(CCCC=CCCCOC(=O)N3CC[C@@](C(=O)N[C@@H](Cc4ccsc4)C(=O)N[C@@H](Cc4csc5ccccc45)C(=O)N[C@@H](CCC(N)=O)C(N)=O)(C3)NC(=O)[C@H](CC(C)C)NC(=O)[C@H](Cc3ccccc3)NC(=O)[C@H](CC(=O)N3CCN(C)CC3)NC(=O)[C@H](C)NC(=O)[C@H](CC(=O)O)NC(=O)[C@H](CC(=O)O)NC1=O)NC(=O)[C@H](CC(C)(C)C)NC(=O)[C@H](CC(=O)O)NC2=O` (stereo partly drawn) [I-1508, Ac-PL3-Asp-Npg-B5-Asp-Asp-Ala-MePpzAsn-Phe-Leu-PyrS2-3Thi-BztA-Gln-NH2], for which the concentration for half-maximal inhibition (IC50) turned out to be 0.087 µM.

On to `CC(=O)N1CCC[C@]12CC=CCCCC1(CCCC=CCCCOC(=O)N3CC[C@@](C(=O)N[C@@H](Cc4ccsc4)C(=O)N[C@@H](Cc4csc5ccccc45)C(=O)N[C@@H](CCC(N)=O)C(N)=O)(C3)NC(=O)[C@H](CC(C)C)NC(=O)[C@H](Cc3ccccc3)NC(=O)[C@H](C)NC(=O)[C@H](C)NC(=O)[C@H](CC(=O)O)NC(=O)[C@H](CC(=O)O)NC1=O)NC(=O)[C@H](Cc1ccccc1)NC(=O)[C@H](CC(=O)O)NC2=O` (stereo partly drawn) [I-1509, Ac-PL3-Asp-Phe-B5-Asp-Asp-Ala-Ala-Phe-Leu-PyrS2-3Thi-BztA-Gln-NH2], for which the IC50 was determined as 0.011 µM.

As for `CC(=O)N1CCC[C@]12CC=CCCCC1(CCCC=CCCCOC(=O)N3CC[C@@](C(=O)N[C@@H](Cc4ccsc4)C(=O)N[C@@H](Cc4csc5ccccc45)C(=O)N[C@@H](CCO)C(N)=O)(C3)NC(=O)[C@H](CC(C)C)NC(=O)[C@H](Cc3ccccc3)NC(=O)[C@H](C)NC(=O)[C@H](C)NC(=O)[C@H](CC(=O)O)NC(=O)[C@H](CC(=O)O)NC1=O)NC(=O)[C@H](CO)NC(=O)[C@H](CC(=O)O)NC2=O` (stereo partly drawn) [I-1514, Ac-PL3-Asp-Ser-B5-Asp-Asp-Ala-Ala-Phe-Leu-PyrS2-3Thi-BztA-Hse-NH2], the IC50 is 0.027 µM.

As for `CC(=O)N1CCC[C@]12CC=CCCCC1(CCCC=CCCCOC(=O)N3CC[C@@](C(=O)N[C@@H](Cc4ccsc4)C(=O)N[C@@H](Cc4csc5ccccc45)C(=O)N[C@@H](CCO)C(N)=O)(C3)NC(=O)[C@H](CC(C)C)NC(=O)[C@H](Cc3ccccc3)NC(=O)[C@H](C)NC(=O)[C@H](C)NC(=O)[C@H](CC(=O)O)NC(=O)[C@H](CC(=O)O)NC1=O)NC(=O)[C@H](CC(N)=O)NC(=O)[C@H](CC(=O)O)NC2=O` (stereo partly drawn) [I-1518, Ac-PL3-Asp-Asn-B5-Asp-Asp-Ala-Ala-Phe-Leu-PyrS2-3Thi-BztA-Hse-NH2], the IC50 is 0.023 µM.

Consider `CC(=O)N1CCC[C@]12CC=CCCCC1(CCCC=CCCCCCC[C@@](C)(C(=O)N[C@@H](Cc3ccccc3)C(=O)N[C@@H](Cc3csc4ccccc34)C(=O)N[C@@H](CCC(N)=O)C(N)=O)NC(=O)[C@H](CC(C)C)NC(=O)[C@H](Cc3ccccc3)NC(=O)[C@H](C)NC(=O)[C@H](C)NC(=O)[C@H](CCC(=O)O)NC(=O)[C@H](CC(=O)O)NC1=O)NC(=O)[C@H](CCC(C)C)NC(=O)[C@H](CC(=O)O)NC2=O` (stereo partly drawn) [I-1536, Ac-PL3-Asp-Hleu-B5-Asp-Glu-Ala-Ala-Phe-Leu-S8-Phe-BztA-Gln-NH2], for which the IC50 was determined as 0.042 µM.

For `CC(=O)N1CCC[C@]12CC=CCCCC1(CCCC=CCCCCCC[C@@](C)(C(=O)N[C@@H](Cc3ccccc3)C(=O)N[C@@H](Cc3csc4ccccc34)C(=O)N[C@@H](CCC(N)=O)C(N)=O)NC(=O)[C@H](CCC(N)=O)NC(=O)[C@H](Cc3ccccc3)NC(=O)[C@H](C)NC(=O)[C@H](C)NC(=O)[C@H](CCC(=O)O)NC(=O)[C@H](CC(=O)O)NC1=O)NC(=O)[C@H](CCC(N)=O)NC(=O)[C@H](CC(=O)O)NC2=O` (stereo partly drawn) [I-1540, Ac-PL3-Asp-Gln-B5-Asp-Glu-Ala-Ala-Phe-Gln-S8-Phe-BztA-Gln-NH2], the IC50 was 0.017 µM.

With `CC(=O)N1CCC[C@]12CC=CCCCC1(CCCC=CCCCCCC[C@@](C)(C(=O)N[C@@H](Cc3ccccc3)C(=O)N[C@@H](Cc3csc4ccccc34)C(=O)N[C@@H](CCC(N)=O)C(N)=O)NC(=O)[C@H](CC(C)C)NC(=O)[C@H](Cc3ccccc3)NC(=O)[C@H](C)NC(=O)[C@H](C)NC(=O)[C@H](CCC(=O)O)NC(=O)[C@H](CC(=O)O)NC1=O)NC(=O)[C@H](CCC(N)=O)NC(=O)[C@H](CC(=O)O)NC2=O` (stereo partly drawn) [I-1541, Ac-PL3-Asp-Gln-B5-Asp-Glu-Ala-Ala-Phe-Leu-S8-Phe-BztA-Gln-NH2], the IC50 was 0.039 µM.

For `CC(=O)N1CCC[C@]12CC=CCCCC1(CCCC=CCCCOC(=O)N3CC[C@@](C(=O)N[C@@H](Cc4ccsc4)C(=O)N[C@@H](Cc4csc5ccccc45)C(=O)N[C@@H](CCC(N)=O)C(N)=O)(C3)NC(=O)[C@H](CC(N)=O)NC(=O)[C@H](Cc3ccccc3)NC(=O)[C@H](C)NC(=O)[C@H](C)NC(=O)[C@H](CCC(N)=O)NC(=O)[C@H](CCC(N)=O)NC1=O)NC(=O)[C@H](CC(C)(C)C)NC(=O)[C@H](CC(=O)O)NC2=O` (stereo partly drawn) [I-1558, Ac-PL3-Asp-Npg-B5-Gln-Gln-Ala-Ala-Phe-Asn-PyrS2-3Thi-BztA-Gln-NH2], the 50% inhibitory concentration (IC50) was determined as 0.678 µM.

As to `CC(=O)N1CCC[C@]12CC=CCCCC1(CCCC=CCCCOC(=O)N3CC[C@@](C(=O)N[C@@H](Cc4ccsc4)C(=O)N[C@@H](Cc4csc5ccccc45)C(=O)N[C@@H](CCC(N)=O)C(N)=O)(C3)NC(=O)[C@H](CC(N)=O)NC(=O)[C@H](Cc3ccccc3)NC(=O)[C@H](C)NC(=O)[C@H](C)NC(=O)[C@H](CC(N)=O)NC(=O)[C@H]([C@@H](C)O)NC1=O)NC(=O)[C@H](CC(C)(C)C)NC(=O)[C@H](CC(=O)O)NC2=O` (stereo partly drawn) [I-1559, Ac-PL3-Asp-Npg-B5-Thr-Asn-Ala-Ala-Phe-Asn-PyrS2-3Thi-BztA-Gln-NH2], the IC50 was 9.68 µM.
